As usually defined, the IC50 is the concentration that gives 50% inhibition.

The target in this experiment is T1, human Cav3.2 channels (Homo sapiens, UniProt O95180).
T1 construct: human Cav3.2 channel ORF (Open Reading Frame) gene; expressed in transfected cells; host or cells: HEK293 cells (ATCC No. CRL-1573), pcDNA3.1(+) plasmid
Nature of the experiment: T-type calcium blocking action: intracellular calcium (Fluo-4 AM fluorescence) in HEK293 cells steadily expressing human Cav3.2 channels. It counts as cell-based. Conditions: HEK293 cells expressing human Cav3.2; KCl-stimulated calcium influx, Fluo-4 fluorescence; Tables 1 to 3. An excerpt: T-Type Calcium Blocking Action
(1) Construction of Cells Steadily Expressing Human Cav3.2 Channels
A sequence obtained by adding HindIII site and a kozak sequence (GCCACC) to the 5′-side of human Cav3.2 channel ORF (Open Reading Frame) gene and adding a KpnI site to the 3′-side of the gene, was incorporated into pcDNA3.1(+) (Thermo Fisher Scientific, #V790-20), and the plasmid was introduced into HEK293 cells (ATCC No. CRL-1573) according to the protocol of FuGENE (registered trademark) HD Transfection Reagent (Promega, #E2311).
(2) Method for Measuring Intracellular Calcium Concentration
The cells steadily expressing human Cav3.2 channels produced by testing method (1) were seeded on a 96-well plate (Dulbecco's modified Eagle medium (DMEM) medium containing 10% fetal bovine serum (FBS) was used as a medium). The cells were seeded and cultured for 48 hours under conditions of 37° C. and 5% CO2. Thereafter, the cells were washed with buffer A in order to remove the medium. Each well was treated with 80 μL of a fluorescent dye solution produced by mixing 22 μg of a fluorescent calcium indicator, Fluo-4 AM (Dojindo Laboratories, #F311), 20 μL of DMSO, 1 μL of 10% Pluronic F-127 (Thermo Fisher Scientific, #P6866), and 4 mL of buffer A. The cells were allowed to stand for 45 minutes at room temperature under light-shielded conditions, and then washed with buffer B in order to completely replace the solution. 70 μL of DMSO having the same concentration as that of a test compound as a negative control and 70 μL of a mixture containing 1 μM of a known blocker RQ-00311651 and the test compound as a positive control were each added to each well in a form of being contained in the buffer B. The test compound was dissolved in 100% DMSO and added at a final concentration of 0.1%. Then, the cells were further allowed to stand at room temperature under light-shielded conditions for 15 minutes and placed in a microplate reader EnVision (PerkinElmer). Background fluorescence was measured in each well, and then a 5 μg/mL grammicidin solution was added to buffer B at 10 μL/well. After 90 seconds, baseline fluorescence was measured. Thereafter, 83.8 mM KCl was added to buffer B at 20 μL/well, and an increase in fluorescence caused by calcium influx generated by the stimulus was measured for 10 seconds. A blocking percentage was calculated from a maximum fluorescence increase value from a baseline, a logarithmic value of a compound concentration and blockery activity were plotted, and thereby an IC50 value was calculated. In the measurement, fluorescence at 510 nm that was emitted when the cells were irradiated with excitation light at 485 nm was observed.
Buffer A: 140 mM NaCl, 5 mM KCl, 1 mM MgCl2, 0.5 mM CaCl2, 10 mM Glucose, 10 mM HEPES, pH 7.3
Buffer B: 137.9 mM Choline-Cl, 4.1 mM KCl, 1 mM MgCl2, 0.5 mM CaCl2, 10 mM Glucose, 10 mM HEPES, pH 7.3

T1 sequence (O95180 whole entry): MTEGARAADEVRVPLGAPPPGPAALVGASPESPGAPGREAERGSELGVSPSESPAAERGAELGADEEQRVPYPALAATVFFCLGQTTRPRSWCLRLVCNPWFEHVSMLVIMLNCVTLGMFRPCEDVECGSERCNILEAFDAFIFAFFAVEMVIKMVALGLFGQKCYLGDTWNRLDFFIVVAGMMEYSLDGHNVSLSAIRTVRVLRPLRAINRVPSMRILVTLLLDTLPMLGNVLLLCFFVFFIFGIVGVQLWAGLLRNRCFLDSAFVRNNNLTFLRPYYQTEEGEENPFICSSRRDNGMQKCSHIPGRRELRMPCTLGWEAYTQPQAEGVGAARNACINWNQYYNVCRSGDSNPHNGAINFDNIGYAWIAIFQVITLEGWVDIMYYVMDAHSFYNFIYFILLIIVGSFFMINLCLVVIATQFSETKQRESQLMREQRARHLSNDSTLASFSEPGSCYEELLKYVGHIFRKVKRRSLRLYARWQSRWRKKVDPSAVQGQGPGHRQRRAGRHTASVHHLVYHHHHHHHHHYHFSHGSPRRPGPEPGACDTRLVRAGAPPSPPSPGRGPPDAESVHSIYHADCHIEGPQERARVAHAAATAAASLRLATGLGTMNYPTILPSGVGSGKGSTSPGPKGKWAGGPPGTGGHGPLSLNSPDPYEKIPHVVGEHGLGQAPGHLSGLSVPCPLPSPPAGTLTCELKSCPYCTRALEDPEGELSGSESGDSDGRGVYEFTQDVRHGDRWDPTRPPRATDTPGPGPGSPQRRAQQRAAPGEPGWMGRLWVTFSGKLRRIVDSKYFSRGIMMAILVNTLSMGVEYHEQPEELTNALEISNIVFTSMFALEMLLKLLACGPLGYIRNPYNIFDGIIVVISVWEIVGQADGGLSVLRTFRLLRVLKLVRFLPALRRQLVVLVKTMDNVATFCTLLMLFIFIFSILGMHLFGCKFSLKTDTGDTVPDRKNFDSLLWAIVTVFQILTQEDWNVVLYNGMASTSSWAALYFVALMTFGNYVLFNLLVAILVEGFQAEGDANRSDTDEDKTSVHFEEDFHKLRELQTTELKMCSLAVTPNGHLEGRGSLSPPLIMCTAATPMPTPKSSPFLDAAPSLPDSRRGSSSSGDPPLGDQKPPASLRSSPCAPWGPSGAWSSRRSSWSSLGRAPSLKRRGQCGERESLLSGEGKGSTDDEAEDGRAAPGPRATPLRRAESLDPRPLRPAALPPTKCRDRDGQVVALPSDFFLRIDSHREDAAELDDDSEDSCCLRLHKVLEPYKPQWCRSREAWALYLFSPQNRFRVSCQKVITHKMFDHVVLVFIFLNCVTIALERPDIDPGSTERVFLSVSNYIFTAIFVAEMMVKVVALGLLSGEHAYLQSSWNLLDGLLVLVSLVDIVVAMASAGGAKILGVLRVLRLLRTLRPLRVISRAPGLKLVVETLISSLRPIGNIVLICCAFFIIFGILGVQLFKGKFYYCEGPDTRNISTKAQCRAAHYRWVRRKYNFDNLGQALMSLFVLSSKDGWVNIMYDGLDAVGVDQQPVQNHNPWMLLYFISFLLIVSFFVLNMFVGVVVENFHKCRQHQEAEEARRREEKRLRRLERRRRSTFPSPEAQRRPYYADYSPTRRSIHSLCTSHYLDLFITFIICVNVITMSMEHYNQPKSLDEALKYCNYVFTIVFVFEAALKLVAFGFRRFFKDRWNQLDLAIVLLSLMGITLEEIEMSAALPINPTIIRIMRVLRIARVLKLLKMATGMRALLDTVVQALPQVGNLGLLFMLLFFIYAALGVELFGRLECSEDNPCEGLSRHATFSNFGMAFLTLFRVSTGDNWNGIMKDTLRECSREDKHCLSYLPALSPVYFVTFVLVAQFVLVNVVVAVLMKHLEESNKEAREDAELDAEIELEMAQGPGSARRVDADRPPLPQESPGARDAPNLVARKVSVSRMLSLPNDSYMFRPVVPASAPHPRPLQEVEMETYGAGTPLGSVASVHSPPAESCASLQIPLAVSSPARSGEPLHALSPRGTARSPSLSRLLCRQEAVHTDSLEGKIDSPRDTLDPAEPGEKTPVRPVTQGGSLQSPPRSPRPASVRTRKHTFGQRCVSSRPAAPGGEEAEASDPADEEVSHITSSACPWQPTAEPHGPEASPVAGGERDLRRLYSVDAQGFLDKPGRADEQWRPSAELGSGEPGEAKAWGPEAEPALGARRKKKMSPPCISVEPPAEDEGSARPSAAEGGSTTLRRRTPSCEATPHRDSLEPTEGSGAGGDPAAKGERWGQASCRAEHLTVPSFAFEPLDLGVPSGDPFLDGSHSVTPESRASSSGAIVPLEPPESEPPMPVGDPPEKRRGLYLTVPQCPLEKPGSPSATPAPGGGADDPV

For `O=C(Cc1ccc(C2CC2)cc1)N[C@@H]1CCN(c2nc(C(F)(F)F)cs2)C1` [Example 16, (R)-2-(4-cyclopropylphenyl)-N-(1-(4-(trifluoromethyl)thiazol-2-yl)pyrrolidin-3-yl)acetamide], the IC50 was found to be 320 nM.

Consider `CC(C)Cc1ccc(C(C)C(=O)N[C@@H]2CCN(c3cncc(C(F)(F)F)c3)C2)cc1` (stereo partly drawn) [Example 17, 2-(4-Isobutylphenyl)-N—((R)-1-(5-(trifluoromethyl)pyridin-3-yl)pyrrolidin-3-yl)propanamide], for which the IC50 was 380 nM.

In the case of `Cc1ncc(N2CC[C@@H](NC(=O)Cc3ccc(C4CC4)cc3)C2)cc1C(F)(F)F` [Example 18, (R)-2-(4-cyclopropylphenyl)-N-(1-(6-methyl-5-(trifluoromethyl)pyridin-3-yl)pyrrolidin-3-yl)acetamide], the IC50 was 90 nM. Turning to `CC(C)(O)c1cncc(N2CC[C@@H](NC(=O)Cc3ccc(C4CC4)cc3)C2)c1` [Example 19, (R)-2-(4-cyclopropylphenyl)-N-(1-(5-(2-hydroxypropan-2-yl)pyridin-3-yl)pyrrolidin-3-yl)acetamide], the IC50 was 3500 nM. Turning to `NC(=O)C1(NC(=O)Cc2ccc(C3CC3)cc2)CCN(c2cncc(C(F)(F)F)c2)C1` (stereo not drawn) [Example 21, 3-(2-(4-cyclopropylphenyl)acetamido)-1-(5-(trifluoromethyl)pyridin-3-yl)pyrrolidine-3-carboxyamide], the IC50 stood at 1200 nM. Consider `O=C(Cc1ccc(O)cc1)N[C@@H]1CCN(c2cncc(C(F)(F)F)c2)C1` [Example 22, (R)-2-(4-hydroxyphenyl)-N-(1-(5-(trifluoromethyl)pyridin-3-yl)pyrrolidin-3-yl)acetamide], for which the IC50 was 1600 nM. Regarding `O=C(Cc1ccc(N2CCS(=O)(=O)CC2)cc1)N[C@@H]1CCN(c2cncc(C(F)(F)F)c2)C1` [Example 23, (R)-2-(4-(1,1-dioxidethiomorpholino)phenyl)-N-(1-(5-(trifluoromethyl)pyridin-3-yl)pyrrolidin-3-yl)acetamide], the IC50 was 150 nM. Take `O=C(N[C@@H]1CCN(c2cncc(C(F)(F)F)c2)C1)C1(c2ccc(Cl)cc2)CC1` [Example 24, (R)-1-(4-chlorophenyl)-N-(1-(5-(trifluoromethyl)pyridin-3-yl)pyrrolidin-3-yl)cyclopropane-1-carboxyamide]: the IC50 was 720 nM. As for `O=C(N[C@@H]1CCN(c2cncc(C(F)(F)F)c2)C1)C(O)c1ccc(Br)cc1` (stereo partly drawn) [Example 25, 2-(4-Bromophenyl)-2-hydroxy-N—((R)-1-(5-(trifluoromethyl)pyridin-3-yl)pyrrolidin-3-yl)acetamide], the IC50 is 2000 nM. In the case of `C[Si](C)(C)c1ccc(CC(=O)N[C@@H]2CCN(c3cncc(C(F)(F)F)c3)C2)cc1` [Example 26, (R)—N-(1-(5-(trifluoromethyl)pyridin-3-yl)pyrrolidin-3-yl)-2-(4-(trimethylsilyl)phenyl)acetamide], the IC50 worked out at 150 nM. Consider `CC(C)(O)COc1ccc(CC(=O)N[C@@H]2CCN(c3cncc(C(F)(F)F)c3)C2)cc1` [Example 27, (R)-2-(4-(2-hydroxy-2-methylpropoxy)phenyl)-N-(1-(5-(trifluoromethyl)pyridin-3-yl)pyrrolidin-3-yl)acetamide], for which the IC50 came out at 700 nM. On to `O=C(Cc1ccc(C2CC2)cc1)N[C@H]1CN(c2cncc(C(F)(F)F)c2)C[C@@H]1F` [Example 28, 2-(4-cyclopropylphenyl)-N-((3S,4S)-4-fluoro-1-(5-(trifluoromethyl)pyridin-3-yl)pyrrolidin-3-yl)acetamide], for which the IC50 is 200 nM.

In the case of `CN(C)c1ccc(CC(=O)N[C@@H]2CCN(c3cncc(C(F)(F)F)c3)C2)cc1` [Example 29, (R)-2-(4-(dimethylamino)phenyl)-N-(1-(5-(trifluoromethyl)pyridin-3-yl)pyrrolidin-3-yl)acetamide], the IC50 worked out at 40 nM. As for `O=C(Cc1ccc([N+](=O)[O-])cc1)N[C@@H]1CCN(c2cncc(C(F)(F)F)c2)C1` [Example 30, (R)-2-(4-nitrophenyl)-N-(1-(5-(trifluoromethyl)pyridin-3-yl)pyrrolidin-3-yl)acetamide], the figure is 650 nM; as for `CC(C)Cc1ccc([C@H](C)C(=O)N[C@@H]2CCN(c3cncc(C(F)(F)F)c3)C2)cc1` [Example 31, (S)-2-(4-isobutylphenyl)-N—((R)-1-(5-(trifluoromethyl)pyridin-3-yl)pyrrolidin-3-yl)propanamide], 210 nM. With `O=C(Cc1ccc(C(F)(F)F)c(F)c1)N[C@@H]1CCN(c2cncc(C(F)(F)F)c2)C1` [Example 32, (R)-2-(3-fluoro-4-(trifluoromethyl)phenyl)-N-(1-(5-(trifluoromethyl)pyridin-3-yl)pyrrolidin-3-yl)acetamide], the IC50 worked out at 150 nM. Take `Nc1ccc(CC(=O)N[C@@H]2CCN(c3cncc(C(F)(F)F)c3)C2)cc1` [Example 33, (R)-2-(4-aminophenyl)-N-(1-(5-(trifluoromethyl)pyridin-3-yl)pyrrolidin-3-yl)acetamide]: the IC50 was 1000 nM. As for `O=C(N[C@@H]1CCN(c2cncc(C(F)(F)F)c2)C1)C1(c2ccc(C(F)(F)F)cc2)CC1` [Example 34, (R)-1-(4-(trifluoromethyl)phenyl)-N-(1-(5-(trifluoromethyl)pyridin-3-yl)pyrrolidin-3-yl)cyclopropane-1-carboxyamide], the IC50 amounted to 240 nM.

For the molecule `CC(=O)Nc1ccc(CC(=O)N[C@@H]2CCN(c3cncc(C(F)(F)F)c3)C2)cc1` [Example 35, (R)-2-(4-acetamidophenyl)-N-(1-(5-(trifluoromethyl)pyridin-3-yl)pyrrolidin-3-yl)acetamide], the IC50 is 630 nM.

With `N#CC1(NC(=O)Cc2ccc(C3CC3)cc2)CCN(c2cncc(C(F)(F)F)c2)C1` (stereo not drawn) [Example 36, N-(3-cyano-1-(5-(trifluoromethyl)pyridin-3-yl)pyrrolidin-3-yl)-2-(4-cyclopropylphenyl)acetamide], the IC50 stood at 980 nM. Regarding `COC(=O)C1(NC(=O)Cc2ccc3cc[nH]c3c2)CCN(c2cncc(C(F)(F)F)c2)C1` (stereo not drawn) [Example 37, Methyl 3-(2-(1H-indol-6-yl)acetamido)-1-(5-(trifluoromethyl)pyridin-3-yl)pyrrolidine-3-carboxylate], the IC50 came out at 27 nM. Consider `COC(=O)C1(NC(=O)Cc2ccc(C(F)(F)F)cc2)CCN(c2cncc(C(F)(F)F)c2)C1` (stereo not drawn) [Example 38, Methyl 3-(2-(4-(trifluoromethyl)phenyl)acetamido)-1-(5-(trifluoromethyl)pyridin-3-yl)pyrrolidine-3-carboxylate], for which the IC50 stood at 35 nM.

`O=C(N[C@@H]1CCN(c2cncc(C(F)(F)F)c2)C1)[C@H]1C[C@@H]1c1nc2ccccc2o1` [Example 39, (1S,2S)-2-(benzo[d]oxazol-2-yl)-N—((R)-1-(5-(trifluoromethyl)pyridin-3-yl)pyrrolidin-3-yl)cyclopropane-1-carboxyamide]: the IC50 was found to be 22 nM. With `O=C(Cc1ccc(N2CCOCC2)cc1)N[C@@H]1CCN(c2nc(C(F)(F)F)cs2)C1` [Example 40, (R)-2-(4-morpholinophenyl)-N-(1-(4-(trifluoromethyl)thiazol-2-yl)pyrrolidin-3-yl)acetamide], the IC50 is 300 nM. As to `COC(=O)C1(NC(=O)Cc2ccc(N3CCOCC3)cc2)CCN(c2cncc(C(F)(F)F)c2)C1` (stereo not drawn) [Example 41, Methyl 3-(2-(4-morpholinophenyl)acetamido)-1-(5-(trifluoromethyl)pyridin-3-yl)pyrrolidine-3-carboxylate], the IC50 came to 25 nM.

For `O=C(Cc1ccc(N2CCOCC2)cc1)N[C@@H]1CCN(c2ccc(C(F)(F)F)nc2)C1` [Example 42, (R)-2-(4-morpholinophenyl)-N-(1-(6-(trifluoromethyl)pyridin-3-yl)pyrrolidin-3-yl)acetamide], the IC50 was 250 nM. Take `CCC1(NC(=O)Cc2ccc(C3CC3)cc2)CCN(c2cncc(C(F)(F)F)c2)C1` (stereo not drawn) [Example 43, 2-(4-cyclopropylphenyl)-N-(3-ethyl-1-(5-(trifluoromethyl)pyridin-3-yl)pyrrolidin-3-yl)acetamide]: the IC50 was 190 nM.
